Key:
Assay in all cases: Antimicrobial screening by agar dilution
Assay type in all cases: cell-based
Conditions in all cases: after 10, 20, 40 and 60 minutes at all dilutions 1:100, 1:200, 1:400, 1:800
Pseudomonas aeruginosa = system: Pseudomonas aeruginosa
Description: (§1) The antibacterial properties of the synthesized compound 9-(2-hydroxypyridin-3-yl)-10-(2-hydroxyethyl)-3,3,6,6-tetramethyl-3,4,6,7,9,10-hexahydroacridine1,8(2H,5H)-dione were studied by the method of agar dilution. Test solutions of each compound was prepared in concentration of 1% using dimethylformamide as a solvent then they are diluted in physiological solution to obtain the final experimental dilutions 1:100, 1:200, 1:400, 1:800. The effect of these substances are compared with furacillin in a controllable study. The testing microbes used were gram positive bacteria Staphylococcus aureus, gram negative bacteria Pseudomonas aeruginosa and Escherichia coli and Candida albicans fungus. The experiments used for this survey were meat-pentonlu agar (EPA) for cultivation of bacteria and Saburo environment for the fungus. Each experiment used 1 mL of test solution on each plate […]. Two drops of emulsified with microbes feel were added. All experimental samples were taken from the agar after 10, 20, 40, 60 minutes in the environment on the basis of Patrk planted. The bacteria were cultivated at a temperature of 37° C. for 1 day and the mushroom was kept in a thermostat for […] at a temperature of 28° C. Then results were checked.

Staphylococcus aureus = system: Staphylococcus aureus
Description: as §1

Escherichia coli = system: Escherichia coli
Description: as §1

Candida albicans = system: Candida albicans
Description: as §1

Measured: inhibition activity

CC1(C)CC(=O)C2=C(C1)N(CCO)C1=C(C(=O)CC(C)(C)C1)C2c1cccnc1O [9-(2-hydroxypyridin-3-yl)-10-(2-hydroxyethyl)-3,3,6,6-tetramethyl-3,4,6,7,9,10-hexahydroacridine1,8(2H,5H)-dione]
highest inhibition activity: all assays above

— patent US12129241B1, “9-(2-hydroxypyridin-3-yl)-10-(2-hydroxyethyl)-3,3,6,6-tetramethyl-3,4,6,7,9,10-hexahydroacridine1,8(2H,5H)-dione as an antimicrobial compound” (KING FAISAL UNIVERSITY, priority 2023, dated 2024)
